Each compound was assayed on human umbilical vein endothelial cells (HUVEC) (assay: HUVEC proliferation assay). Details: Homo sapiens, HUVEC, Table I screening results; 150 nM; crude combinatorial amide library.
Type: cell-based
Method in brief: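 Exponentially growing HUVEC were serum-starved 24 h (F12K + 1% FBS), pre-treated 1 h with compound (0.1% DMSO final), then stimulated with 6 ng/ml VEGF. Proliferation was read 72 h later by MTT reduction (A595). IC50 came from seven 0.5-log concentrations in triplicate; screens gave % inhibition relative to VEGF-only and starved wells.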

| Compound | inhibition at 0.15 µM [%] |
| --- | --- |
| COc1cc(Nc2nc(N)c(-c3nc(-c4cccc(NC(=O)CC56CC7CC8CC(C5)C8(C7)C6)c4)cs3)s2)cc(OC)c1OC (stereo not shown) | 8 |
| COc1cc(Nc2nc(N)c(-c3nc(-c4cccc(NC(=O)c5ccc(C(=O)c6ccccc6)cc5)c4)cs3)s2)cc(OC)c1OC | 7 |
| COc1cc(Nc2nc(N)c(-c3nc(-c4cccc(NC(=O)CCC5CCCCC5)c4)cs3)s2)cc(OC)c1OC | 8 |
| COc1cc(Nc2nc(N)c(-c3nc(-c4cccc(NC(=O)/C=C/c5ccccc5)c4)cs3)s2)cc(OC)c1OC | 36 |
| COc1cc(Nc2nc(N)c(-c3nc(-c4cccc(NC(=O)CC(c5ccccc5)c5ccccc5)c4)cs3)s2)cc(OC)c1OC | 10 |
| COc1cc(Nc2nc(N)c(-c3nc(-c4cccc(NC(=O)c5ccoc5)c4)cs3)s2)cc(OC)c1OC | 7 |
| COc1cc(Nc2nc(N)c(-c3nc(-c4cccc(NC(=O)c5ccco5)c4)cs3)s2)cc(OC)c1OC | 15 |
| COc1cc(Nc2nc(N)c(-c3nc(-c4cccc(NC(=O)c5ccc6c(c5)C(=O)c5ccccc5-6)c4)cs3)s2)cc(OC)c1OC | -4 |
| COc1cc(Nc2nc(N)c(-c3nc(-c4cccc(NC(=O)CCc5c[nH]c6ccccc56)c4)cs3)s2)cc(OC)c1OC | -4 |
| COc1cc(Nc2nc(N)c(-c3nc(-c4cccc(NC(=O)CNC(=O)c5ccccc5)c4)cs3)s2)cc(OC)c1OC | -26 |
| COc1cc(Nc2nc(N)c(-c3nc(-c4cccc(NC(=O)c5cc6ccccc6[nH]5)c4)cs3)s2)cc(OC)c1OC | 4 |
| COc1cc(Nc2nc(N)c(-c3nc(-c4cccc(NC(=O)c5c[nH]c6ccccc56)c4)cs3)s2)cc(OC)c1OC | 20 |
| COc1cc(Nc2nc(N)c(-c3nc(-c4cccc(NC(=O)Cc5ccc6ccccc6c5)c4)cs3)s2)cc(OC)c1OC | -7 |
| COc1cc(Nc2nc(N)c(-c3nc(-c4cccc(NC(=O)Cc5cccc6ccccc56)c4)cs3)s2)cc(OC)c1OC | 6 |
| COc1cc(Nc2nc(N)c(-c3nc(-c4cccc(NC(=O)c5ccc6ccccc6c5)c4)cs3)s2)cc(OC)c1OC | 53 |
| COc1cc(Nc2nc(N)c(-c3nc(-c4cccc(NC(=O)c5cccc6ccccc56)c4)cs3)s2)cc(OC)c1OC | 22 |
| COc1cc(Nc2nc(N)c(-c3nc(-c4cccc(NC(=O)CCCc5ccccc5)c4)cs3)s2)cc(OC)c1OC | 15 |
| COc1cc(Nc2nc(N)c(-c3nc(-c4cccc(NC(=O)/C(=C/c5ccccc5)c5ccccc5)c4)cs3)s2)cc(OC)c1OC | 3 |
| COc1cc(Nc2nc(N)c(-c3nc(-c4cccc(NC(=O)[C@@H]5C[C@H]5c5ccccc5)c4)cs3)s2)cc(OC)c1OC | -4 |
| COc1cc(Nc2nc(N)c(-c3nc(-c4cccc(NC(=O)CSc5ccncc5)c4)cs3)s2)cc(OC)c1OC | -34 |
| COc1cc(Nc2nc(N)c(-c3nc(-c4cccc(NC(=O)C(c5ccccc5)C5CCCC5)c4)cs3)s2)cc(OC)c1OC (stereo not shown) | 3 |
| CCC(C(=O)Nc1cccc(-c2csc(-c3sc(Nc4cc(OC)c(OC)c(OC)c4)nc3N)n2)c1)c1ccccc1 (stereo not shown) | 6 |
| COc1cc(Nc2nc(N)c(-c3nc(-c4cccc(NC(=O)C5(c6ccccc6)CCCC5)c4)cs3)s2)cc(OC)c1OC | -10 |
| COc1cc(Nc2nc(N)c(-c3nc(-c4cccc(NC(=O)C5(c6ccccc6)CC5)c4)cs3)s2)cc(OC)c1OC | 11 |

| Compound | inhibition at 0.15 µM [%] |
| --- | --- |
| C=CCCC(=O)Nc1cccc(-c2csc(-c3sc(Nc4cc(OC)c(OC)c(OC)c4)nc3N)n2)c1 | 5 |
| COc1cc(Nc2nc(N)c(-c3nc(-c4cccc(NC(=O)C5CCc6ccccc6C5)c4)cs3)s2)cc(OC)c1OC (stereo not shown) | 11 |
| COc1cc(Nc2nc(N)c(-c3nc(-c4cccc(NC(=O)c5cccs5)c4)cs3)s2)cc(OC)c1OC | 29 |
| COc1cc(Nc2nc(N)c(-c3nc(-c4cccc(NC(=O)c5cccc(Oc6ccccc6)c5)c4)cs3)s2)cc(OC)c1OC | -3 |
| COc1cc(Nc2nc(N)c(-c3nc(-c4cccc(NC(=O)c5nn(-c6ccccc6)nc5C)c4)cs3)s2)cc(OC)c1OC | 0 |
| COc1cc(Nc2nc(N)c(-c3nc(-c4cccc(NC(=O)c5ccc6[nH]ccc6c5)c4)cs3)s2)cc(OC)c1OC | 15 |
| COc1cc(Nc2nc(N)c(-c3nc(-c4cccc(NC(=O)CCN5CCCCC5)c4)cs3)s2)cc(OC)c1OC | 15 |
| COc1cc(Nc2nc(N)c(-c3nc(-c4cccc(NC(=O)/C=C/c5c[nH]c6ccccc56)c4)cs3)s2)cc(OC)c1OC | 5 |
| COc1cc(Nc2nc(N)c(-c3nc(-c4cccc(NC(=O)/C=C/c5c[nH]cn5)c4)cs3)s2)cc(OC)c1OC | 2 |
| COc1cc(Nc2nc(N)c(-c3nc(-c4cccc(NC(=O)c5c(-c6ccccc6)noc5C)c4)cs3)s2)cc(OC)c1OC | 5 |
| COc1cc(Nc2nc(N)c(-c3nc(-c4cccc(NC(=O)c5ccc(N6N=C(C)CC6=O)cc5)c4)cs3)s2)cc(OC)c1OC | 0 |
| COc1cc(Nc2nc(N)c(-c3nc(-c4cccc(NC(=O)C(O)(c5ccccc5)c5ccccc5)c4)cs3)s2)cc(OC)c1OC | -8 |
| C/C=C/CC(=O)Nc1cccc(-c2csc(-c3sc(Nc4cc(OC)c(OC)c(OC)c4)nc3N)n2)c1 | 38 |
| COc1cc(Nc2nc(N)c(-c3nc(-c4cccc(NC(=O)C5C(C=C(C)C)C5(C)C)c4)cs3)s2)cc(OC)c1OC (stereo not shown) | 19 |
| COc1cc(Nc2nc(N)c(-c3nc(-c4cccc(NC(=O)c5ccc(C)c(Br)c5)c4)cs3)s2)cc(OC)c1OC | 86 |
| COc1ccc(C(=O)Nc2cccc(-c3csc(-c4sc(Nc5cc(OC)c(OC)c(OC)c5)nc4N)n3)c2)cc1F | 51 |
| COc1cc(Nc2nc(N)c(-c3nc(-c4cccc(NC(=O)c5scc(S(=O)(=O)c6ccc(Cl)cc6)c5C)c4)cs3)s2)cc(OC)c1OC | 10 |
| COc1cc(Nc2nc(N)c(-c3nc(-c4cccc(NC(=O)C5CCCC5)c4)cs3)s2)cc(OC)c1OC | 12 |
| CCOC(=O)/C=C/C(=O)Nc1cccc(-c2csc(-c3sc(Nc4cc(OC)c(OC)c(OC)c4)nc3N)n2)c1 | 27 |
| COc1cc(Nc2nc(N)c(-c3nc(-c4cccc(NC(=O)Cc5cccc(C)c5)c4)cs3)s2)cc(OC)c1OC | 75 |
| COc1cc(Nc2nc(N)c(-c3nc(-c4cccc(NC(=O)C5C6CC7C(C6=O)C75)c4)cs3)s2)cc(OC)c1OC (stereo not shown) | -6 |
| COc1cc(Nc2nc(N)c(-c3nc(-c4cccc(NC(=O)c5ccc6c(c5)OC(F)(F)O6)c4)cs3)s2)cc(OC)c1OC | 72 |
| COc1cc(Nc2nc(N)c(-c3nc(-c4cccc(NC(=O)C5CC(=O)N5)c4)cs3)s2)cc(OC)c1OC (stereo not shown) | -2 |
| CCOC(=O)c1cc(C(=O)Nc2cccc(-c3csc(-c4sc(Nc5cc(OC)c(OC)c(OC)c5)nc4N)n3)c2)cc(C(=O)OCC)c1 | 6 |

| Compound | inhibition at 0.15 µM [%] |
| --- | --- |
| COc1cc(Nc2nc(N)c(-c3nc(-c4cccc(NC(=O)c5cc6c(cc5C)C(C)(C)C(C)CC6(C)C)c4)cs3)s2)cc(OC)c1OC (stereo not shown) | 7 |
| COc1cc(Nc2nc(N)c(-c3nc(-c4cccc(NC(=O)c5ccc6c(c5)C(=O)N(C)C6=O)c4)cs3)s2)cc(OC)c1OC | -3 |
| COc1cc(Nc2nc(N)c(-c3nc(-c4cccc(NC(=O)c5ccc6c(c5)C(=O)NC6=O)c4)cs3)s2)cc(OC)c1OC | -6 |
| COc1cc(Nc2nc(N)c(-c3nc(-c4cccc(NC(=O)C#Cc5ccccc5)c4)cs3)s2)cc(OC)c1OC | -25 |
| COc1cc(Nc2nc(N)c(-c3nc(-c4cccc(NC(=O)Cc5ccccc5F)c4)cs3)s2)cc(OC)c1OC | 21 |
| COc1cc(Nc2nc(N)c(-c3nc(-c4cccc(NC(=O)Cc5cccnc5)c4)cs3)s2)cc(OC)c1OC | -20 |
| COc1cc(Nc2nc(N)c(-c3nc(-c4cccc(NC(=O)/C=C/c5ccccn5)c4)cs3)s2)cc(OC)c1OC | -7 |
| COc1cc(Nc2nc(N)c(-c3nc(-c4cccc(NC(=O)Cc5cc(F)ccc5F)c4)cs3)s2)cc(OC)c1OC | 49 |
| COc1cccc(CC(=O)Nc2cccc(-c3csc(-c4sc(Nc5cc(OC)c(OC)c(OC)c5)nc4N)n3)c2)c1 | 12 |
| COc1cc(Nc2nc(N)c(-c3nc(-c4cccc(NC(=O)Cc5cc(C)ccc5C)c4)cs3)s2)cc(OC)c1OC | 12 |
| COc1cc(Nc2nc(N)c(-c3nc(-c4cccc(NC(=O)C5C[C@@H]6C=C[C@H]5C6)c4)cs3)s2)cc(OC)c1OC (stereo partly shown) | 37 |
| COC(=O)c1cccc(C(=O)Nc2cccc(-c3csc(-c4sc(Nc5cc(OC)c(OC)c(OC)c5)nc4N)n3)c2)c1 | 42 |
| COC(=O)c1ccc(C(=O)Nc2cccc(-c3csc(-c4sc(Nc5cc(OC)c(OC)c(OC)c5)nc4N)n3)c2)nc1 | 20 |
| COc1cc(Nc2nc(N)c(-c3nc(-c4cccc(NC(=O)c5c[nH]cn5)c4)cs3)s2)cc(OC)c1OC | 15 |
| COc1cc(OC)cc(C(=O)Nc2cccc(-c3csc(-c4sc(Nc5cc(OC)c(OC)c(OC)c5)nc4N)n3)c2)c1 | 51 |
| COc1cc(Nc2nc(N)c(-c3nc(-c4cccc(NC(=O)CCc5ccc(C)cc5)c4)cs3)s2)cc(OC)c1OC | 25 |
| COc1cc(Nc2nc(N)c(-c3nc(-c4cccc(NC(=O)C5Cc6ccccc65)c4)cs3)s2)cc(OC)c1OC (stereo not shown) | 56 |
| COc1cc(Nc2nc(N)c(-c3nc(-c4cccc(NC(=O)c5cc(C)cc(C)c5)c4)cs3)s2)cc(OC)c1OC | 78 |
| COc1cc(Nc2nc(N)c(-c3nc(-c4cccc(NC(=O)c5ccc(NC(C)=O)cc5)c4)cs3)s2)cc(OC)c1OC | 16 |
| COc1cc(Nc2nc(N)c(-c3nc(-c4cccc(NC(=O)c5ccc(C(C)(C)C)cc5)c4)cs3)s2)cc(OC)c1OC | 26 |
| COc1cc(Nc2nc(N)c(-c3nc(-c4cccc(NC(=O)c5ccc(C)cc5)c4)cs3)s2)cc(OC)c1OC | 66 |
| COc1cc(Nc2nc(N)c(-c3nc(-c4cccc(NC(=O)CC(C)c5ccccc5)c4)cs3)s2)cc(OC)c1OC (stereo not shown) | 26 |

Reference: patent US6620828B2, “Thiazole compounds and pharmaceutical compositions for inhibiting protein kinases and methods for their use” (Agouron Pharmaceuticals, Inc., priority 1999, dated 2003)
